The values that follow come from patent US7671092B2, “Paclitaxel enhancer compounds” (Synta Pharmaceuticals Corp., priority 2001, dated 2010).

“And” between values parts separate entries of the source, which are not always exact repeats. Equal values may be shown once.

Series [1] is classed as in vivo. The conditions noted are these: mice treated with Paclitaxel and Compound (1); FIG. 2. The method, then: The in vivo anti-cancer enhancing effect of novel compounds was assessed in tumor bearing mice using the tumor growth inhibition assay. Tumor cells were implanted by injection of a tumor cell suspension subcutaneously in the flank of a mouse. […] Animal then begun a multiple injection schedule where the compound and Paclitaxel were given by IV route of administration. Tumors were measured two times a week. During the course of this assay, animals were monitored daily for signs of toxicity including body weight loss.

The test system of series [2] is MDA-435 human breast tumor. Nature of the series: In vivo tumor growth inhibition assay, compound plus Paclitaxel given IV to tumor-bearing mice. Also noted: species or system CD-1 nu/nu mice. As to conditions: for % Tumor Growth: vehicle = 100.
Experimental: A supplemented media was prepared from 50% DMEM/Dulbecco Modified Eagle Medium (High Glucose), 50% RPMI 1640, 10% FBS/Fetal Bovine Serum (Hybridoma Tested; Sterile Filtered), 1% L-Glutamine, 1% Penicillin-Streptomycin, 1% MEM Sodium Pyruvate and 1% MEM Non-Essential Amino Acids. FBS was obtained from Sigma Chemical Co. and other ingredients were obtained from Invitrogen Life Technologies, USA). The supplemental media was warmed to 37° C. and 50 ml of media was added to a 175 cm^2 tissue culture flask.
The cells used in the assay were MDA-435 Human Breast Carcinoma from the American Type Culture Collection. 1 vial of MDA-435 cells from the liquid nitrogen frozen cell stock was removed. The frozen vial of cells was immediately placed into a 37° C. water bath and gently swirled until thawed. The freeze-vial was wiped with 70% ethanol and cells were immediately pipetted into the 175 cm^2 tissue culture flask containing supplemented media. The cells were incubated overnight and the media was removed and replaced with fresh supplemented media the next day. The flask was incubated until flask became about 90% confluent. This took anywhere from 5-7 days.
The flask was washed with 10 ml of sterile room temperature phosphate buffered saline (PBS). The cells were trypsinized by adding 5 ml of warmed Trypsin-EDTA (Invitrogen) to the flask of cells. […] An equal volume of supplemented media (5 ml) was added to the flask. All the cells were collected into 50 ml tube, and centrifuged at 1000 RPM for 5 minutes at 20° C. The supernatant was aspirated and the cell pellet was resuspended in 10 ml of supplemented media and the cells were counted. 1-3 million cells/flask were seeded into 5-7 tissue culture flasks (175 cm^2). Each flask contained 50 ml of supplemented media. The flasks were incubated until about 90% confluent. The passaging of the cells was repeated until enough cells have been grown for tumor implantation.
The above procedure for trypsinizing and centrifuging the cells were followed. The supernatant was aspirated and the cell pellet was resuspended in 10 ml of sterile PBS and the cells were counted. The cells were centrifuged and then resuspended with appropriate volume of sterile PBS for injection of correct number of cells needed for tumor implantation. In the case of MDA-435, 100 million cells were suspended with 2.0 ml of sterile PBS to a final concentration of 50 million cells/ml in order to inject 5 million cells in 0.1 ml/mouse.
Mice (CD-1 nu/nu) were obtained from Charles River Laboratories: nomenclature: Crl:CD-1-nuBR, Age: 6-8 weeks. The mice were allowed to acclimate for 1 week prior to their being used in an experimental procedure.
Implantation of the MDA-435 tumor cell suspension took place into the corpus adiposum of the female CD-1 nu/nu mouse. […] Tumor cells were implanted subcutaneously into the fat body located in the right quadrant of the abdomen at the juncture of the os coxae (pelvic bone) and the os femoris (femur). 5 million MDA-435 cells in 0.1 ml of sterile PBS were injected using 27 G (½ inch) needle. MDA-435 tumors developed 2-3 weeks after implantation.
Compound stock solutions were prepared by dissolving the compound in cell-culture-grade DMSO (dimethyl sulfoxide) at the desired concentration. This stock solution in DMSO was sonicated in an ultrasonic water bath until all the powder dissolved.

For `CN(NC(=O)CC(=O)NN(C)C(=S)c1ccccc1)C(=S)c1ccccc1` [Compound (1), N-Malonyl-bis[N′-methyl-N′-(thiobenzoyl)hydrazide]], the “Weight loss over the treatment period” value in series [1] is given as “little if any weight loss”. Further, the “Enhancement of anti-tumor activity of Paclitaxel” value in series [2] (Example 12, FIG. 1: Compound (1) 25 or 50 mg/kg + Paclitaxel 5 mg/kg, IV, 3 times a week for 3 weeks) is given as “significantly enhanced anti-tumor activity of Paclitaxel”; in series [2] (Example 13: compound 80 mg/kg + Paclitaxel at both 2 mg/kg and 5 mg/kg, IV, 3 times a week for 3 weeks), “significantly enhanced anti-tumor activity of Paclitaxel”. For the same compound, the “% Tumor Growth” value in series [2] (Example 13, Day 23, Groups 4-5: compound 80 mg/kg alone, IV, 3 times a week for 3 weeks) turned out to be 90%; in series [2] (Example 13, Day 23, Groups 6 and 8: compound 80 mg/kg + Paclitaxel 2 mg/kg, IV, 3 times a week for 3 weeks), 64%; in series [2] (Example 13, Day 23, Groups 7 and 9: compound 80 mg/kg + Paclitaxel 5 mg/kg, IV, 3 times a week for 3 weeks), 35%. Also, the “Average Tumor Volume (mm^3) on Day 23” value in series [2] (Example 13, Groups 4-5: compound 80 mg/kg alone, IV, 3 times a week for 3 weeks) is reported as 270.0 mm^3; in series [2] (Example 13, Groups 6 and 8: compound 80 mg/kg + Paclitaxel 2 mg/kg, IV, 3 times a week for 3 weeks), 193.3 mm^3; in series [2] (Example 13, Groups 7 and 9: compound 80 mg/kg + Paclitaxel 5 mg/kg, IV, 3 times a week for 3 weeks), 106.2 mm^3. Further, the “Average Tumor Volume [mm^3]” value is reported as 754.9 mm^3 in series [2] (Example 14, Day 48, Group 3: Compound (1) 50 mg/kg alone, IV, 3 times a week for 3 weeks) and 0.59 mm^3 in series [2] (Example 14, Day 48, Group 4: Compound (1) 25 mg/kg + Paclitaxel 10 mg/kg, IV, 3 times a week for 3 weeks). The “% Tumor Growth Inhibition on Day 48” value in series [2] (Example 14, Group 3: Compound (1) 50 mg/kg alone, IV, 3 times a week for 3 weeks) worked out at 0%. Moreover, the “Tumor volume, fold less than with Paclitaxel alone or Compound (1) alone” value in series [2] (after 24 days of treatment, Paclitaxel 5 mg/kg + Compound (1) 25 mg/kg versus Paclitaxel 5 mg/kg only or Compound (1) 50 mg/kg only, FIG. 1) is “about five”.

`CC(=O)O[C@H]1C(=O)[C@@]2(C)[C@H]([C@H](OC(=O)c3ccccc3)[C@]3(O)C[C@H](OC(=O)[C@H](O)[C@@H](NC(=O)c4ccccc4)c4ccccc4)C(C)=C1C3(C)C)[C@]1(OC(C)=O)CO[C@@H]1C[C@@H]2O` [Paclitaxel]: the “% Tumor Growth” value in series [2] (Example 13, Day 23, Group 2: Paclitaxel 2 mg/kg alone, IV, 3 times a week for 3 weeks) is 86%; in series [2] (Example 13, Day 23, Group 3: Paclitaxel 5 mg/kg alone, IV, 3 times a week for 3 weeks), 55%. Further, the “Average Tumor Volume (mm^3) on Day 23” value stood at 259.8 mm^3 in series [2] (Example 13, Group 2: Paclitaxel 2 mg/kg alone, IV, 3 times a week for 3 weeks) and 164.8 mm^3 in series [2] (Example 13, Group 3: Paclitaxel 5 mg/kg alone, IV, 3 times a week for 3 weeks). Further, the “Average Tumor Volume [mm^3]” value in series [2] (Example 14, Day 48, Group 2: Paclitaxel 10 mg/kg alone, IV, 3 times a week for 3 weeks) was 105 mm^3 and 105.4 mm^3. In addition, the “% Tumor Growth Inhibition on Day 48” value in series [2] (Example 14, Group 2: Paclitaxel 10 mg/kg alone, IV, 3 times a week for 3 weeks) is recorded as 86%. Moreover, the Anti-tumor activity result in series [2] (Example 14: Paclitaxel 10 mg/kg alone, IV, 3 times a week for 3 weeks) is recorded as “significant anti-tumor activity was observed”. Also, the “Average % Tumor Growth Inhibition on Day 27” value in series [2] (Example 15, Group 2: Paclitaxel 5 mg/kg alone, IV, 3 times a week for 3 weeks) came out at 19%.
